Experimental findings from patent US4331670A (priority 1979, dated 1982) are described below.

For one assay, the system named is Pyricularia orzae. Description: whole plant or invertebrate. The class given is in vivo, Pyricularia orzae (rice plant, Chukyo Asahi). The note with it: in Oryza sativa, 120 h, read-out: Protective value.
For the next assay, the system named is Rhizoctonia solani. The experiment in a line: whole plant or invertebrate. Format: in vivo, Rhizoctonia solani (rice plant, Chukyo Asahi). The note with it: in Oryza sativa, 120 h, read-out: Preventive value.
The test system of another assay is Botrytis cinerea. The experiment in a line: Test 9: protective value on cucumber inoculated with Botrytis cinerea. Format: in vivo, Botrytis cinerea (cucumber plant, Suyo). The conditions noted are these: 72 h, 250 ppm, 10 ml sprayed, lesion length three days after inoculation. The procedure: In each unglazed pot having a diameter of 9 cm, cucumber plant (Suyo) was cultured. At one leaf stage, 10 ml. of each solution of each active ingredient having a concentration of 250 ppm was sprayed by a spray gun. After maintaining the pot in a green-house at 24° to 25° C. for one day, a disc (punched agar disc) obtained by culturing Botrytis cinerea on a potato-glucose-agar medium (PDA medium) was put on the leaf of cucumber to inoculate them. Three days after the inoculation, lengths of lesions were measured and each protective value was calculated as Test 2.
In accordance with the test, except the concentration of the active ingredient was decreased, the comparative tests of Compound No. 7 and Reference compound were carried out.

A further assay concerns Plutella xylostella. The experiment in a line: Test 11: mortality of larvae of Plutella xylostella on treated cabbage leaf. The conditions noted are these: foliar, 192 h, leaf dipped, emulsifiable concentrate Composition No. 3, eight days, read-out: Percent mortality. The class given is in vivo. The text has this: Each emulsifiable concentrate of each active ingredient as Composition No. 3 was dispersed in water at a concentration of 800 ppm. Each leaf of cabbage was dipped into each emulsion for about 10 seconds and taken up and dried in air.
A wet filter paper was put in each Petri dish (diameter of 9 cm), and each treated leaf was put on the filter paper. Larvae of Plutella xylostella at 2nd to 3rd instar were charged and the dish was covered with a cap and kept in a constant temperature chamber with lighting at 28° C. Eight days after the charge, mortality was measured and each percent mortality was calculated.

On to `O=[N+]([O-])c1cc(C(F)(F)F)cc([N+](=O)[O-])c1Nc1ccc(Cl)cn1` [Compound No. 1], for which, in the assay on Pyricularia orzae, the pest or weed control at 100 ppm stood at 91%.
Turning to `O=[N+]([O-])c1cc(C(F)(F)F)c(Cl)c([N+](=O)[O-])c1Nc1cc(Cl)cc(Cl)n1` [Compound No. 6], in the assay with Rhizoctonia solani, the pest or weed control at 100 ppm turned out to be 100%.
With `COc1ccc(Nc2c([N+](=O)[O-])cc(C(F)(F)F)cc2[N+](=O)[O-])c(OC)n1` [Compound No. 25], in the assay on Pyricularia orzae, the pest or weed control at 100 ppm was 85%.
Still for that read-out and setting: then `O=[N+]([O-])c1cc(C(F)(F)F)c(Cl)c([N+](=O)[O-])c1Nc1ccc(Cl)cn1` [compound 5], with 100%; and `Cc1nc(Nc2c([N+](=O)[O-])cc(C(F)(F)F)cc2[N+](=O)[O-])c(Cl)c(C)c1Cl` [compound 9], with 83%; and `Cc1cc(Nc2c([N+](=O)[O-])cc(C(F)(F)F)c(Cl)c2[N+](=O)[O-])ncc1Br` [compound 10], with 86%.
Still for that read-out and setting: with `Cc1nc(Nc2c([N+](=O)[O-])cc(C(F)(F)F)c(Cl)c2[N+](=O)[O-])c(Cl)c(C)c1Cl` [compound 11] the figure was 84%; with `Cc1c(Cl)cnc(Nc2c([N+](=O)[O-])cc(C(F)(F)F)cc2[N+](=O)[O-])c1Cl` [compound 13], 92%.
As for `O=[N+]([O-])c1cc(C(F)(F)F)c(Cl)c([N+](=O)[O-])c1Nc1ncc(Br)cc1Br` [compound 17], in the assay on Pyricularia orzae, the pest or weed control at 100 ppm came out at 100%. This molecule also showed a pest or weed control at 250 ppm in the assay with Botrytis cinerea of 92%.
The like results for `CCc1nc(Nc2c([N+](=O)[O-])cc(C(F)(F)F)c(Cl)c2[N+](=O)[O-])ccc1Br` [compound 23] were, in that order, 93% and 81%.
Take `CCc1nc(Nc2c([N+](=O)[O-])cc(C(F)(F)F)cc2[N+](=O)[O-])ccc1Br` [compound 24]: the pest or weed control at 100 ppm in the assay with Pyricularia orzae is 90%.
Still for that read-out and setting: then `O=[N+]([O-])c1cc(C(F)(F)F)c(F)c([N+](=O)[O-])c1Nc1ncc(C(F)(F)F)cc1Cl` [compound 38], with 100%.
Regarding `CC(C)Oc1c(C(F)(F)F)cc([N+](=O)[O-])c(Nc2ncc(C(F)(F)F)cc2Cl)c1[N+](=O)[O-]` [compound 42], the pest or weed control at 100 ppm in the assay on Pyricularia orzae and in the assay on Rhizoctonia solani was 95% each time. In the assay with Plutella xylostella, the mortality at 800 ppm is 100%.
In the case of `CCCCOc1c(C(F)(F)F)cc([N+](=O)[O-])c(Nc2ncc(C(F)(F)F)cc2Cl)c1[N+](=O)[O-]` [compound 43], the pest or weed control at 100 ppm in the assay on Pyricularia orzae and with Rhizoctonia solani was 95% in each case. Also, the mortality at 800 ppm in the assay with Plutella xylostella was 100%.
As to `CC(C)COc1c(C(F)(F)F)cc([N+](=O)[O-])c(Nc2ncc(C(F)(F)F)cc2Cl)c1[N+](=O)[O-]` [compound 44], the pest or weed control at 100 ppm in the assay on Pyricularia orzae and in the assay on Rhizoctonia solani was 95% each time.
`CSc1c(C(F)(F)F)cc([N+](=O)[O-])c(Nc2ncc(C(F)(F)F)cc2Cl)c1[N+](=O)[O-]` [compound 45]: the pest or weed control at 100 ppm in the assay on Pyricularia orzae and with Rhizoctonia solani was 100% in each case.
With `CCSc1c(C(F)(F)F)cc([N+](=O)[O-])c(Nc2ncc(C(F)(F)F)cc2Cl)c1[N+](=O)[O-]` [compound 46], the pest or weed control at 100 ppm in the assay with Pyricularia orzae worked out at 95%.
`O=[N+]([O-])c1cc(C(F)(F)F)c(O)c([N+](=O)[O-])c1Nc1ncc(C(F)(F)F)cc1Cl` [compound 47]: the pest or weed control at 100 ppm with Pyricularia orzae and in the assay on Rhizoctonia solani was 95% each time.
With `O=[N+]([O-])c1cc(C(F)(F)F)c(Oc2ccccc2O)c([N+](=O)[O-])c1Nc1ncc(C(F)(F)F)cc1Cl` [compound 48], the pest or weed control at 100 ppm in the assay with Rhizoctonia solani was 100%. Moreover, in the assay with Botrytis cinerea, the pest or weed control at 250 ppm came to 100%.
With `O=[N+]([O-])c1cc(C(F)(F)F)c(Oc2cccc(O)c2)c([N+](=O)[O-])c1Nc1ncc(C(F)(F)F)cc1Cl` [compound 50], in the assay with Rhizoctonia solani, the pest or weed control at 100 ppm stood at 100%. Moreover, the pest or weed control at 250 ppm with Botrytis cinerea came out at 100%.
`O=[N+]([O-])c1cc([N+](=O)[O-])c(Nc2ccc(I)cn2)c(C(F)(F)F)c1` [compound 53]: the mortality at 800 ppm with Plutella xylostella is 100%.
Regarding `O=[N+]([O-])c1cc([N+](=O)[O-])c(Nc2cccnc2Cl)c(C(F)(F)F)c1` [compound 55], the mortality at 800 ppm in the assay on Plutella xylostella came to 100%.
Still for that read-out and setting: with `Cc1ccnc(Nc2c([N+](=O)[O-])cc([N+](=O)[O-])cc2C(F)(F)F)c1` [compound 56] the figure was 100%; with `O=[N+]([O-])c1cc([N+](=O)[O-])c(Nc2ccc(C(F)(F)F)cn2)c(C(F)(F)F)c1` [compound 57], 100%; with `O=[N+]([O-])c1cc([N+](=O)[O-])c(Nc2cccnc2)c(C(F)(F)F)c1` [compound 58], 100%.
The same measure, in the same setting: then `O=[N+]([O-])c1cc([N+](=O)[O-])c(Nc2ccncc2)c(C(F)(F)F)c1` [compound 59], with 100%.
Regarding `Cc1cnc(Nc2c([N+](=O)[O-])cc([N+](=O)[O-])cc2C(F)(F)F)c(Br)c1` [compound 64], in the assay on Pyricularia orzae, the pest or weed control at 50 ppm amounted to 100%. Also, the pest or weed control at 100 ppm with Rhizoctonia solani stood at 100%. Moreover, in the assay with Plutella xylostella, the mortality at 800 ppm is 100%.
As for `CCc1nc(Nc2c([N+](=O)[O-])cc([N+](=O)[O-])cc2C(F)(F)F)ccc1I` [compound 67], in the assay on Pyricularia orzae, the pest or weed control at 50 ppm was determined as 100%. Also, the mortality at 800 ppm with Plutella xylostella amounted to 100%.
Turning to `Cc1nc(Nc2c([N+](=O)[O-])cc([N+](=O)[O-])cc2C(F)(F)F)c(Cl)cc1Cl` [compound 68], the pest or weed control at 50 ppm with Pyricularia orzae is 100%. In addition, the pest or weed control at 100 ppm with Rhizoctonia solani turned out to be 100%. Also, the mortality at 800 ppm with Plutella xylostella came out at 100%.
Regarding `Cc1nc(Nc2c([N+](=O)[O-])cc([N+](=O)[O-])cc2C(F)(F)F)ccc1Cl` [compound 69], the pest or weed control at 50 ppm with Pyricularia orzae came out at 100%.
As to `O=[N+]([O-])c1cc([N+](=O)[O-])c(Nc2cc(Cl)cc(Cl)n2)c(C(F)(F)F)c1` [compound 72], the pest or weed control at 100 ppm with Rhizoctonia solani was found to be 100%.
Same read-out and setting: with `Cc1cc(Cl)cc(Nc2c([N+](=O)[O-])cc([N+](=O)[O-])cc2C(F)(F)F)n1` [compound 73] the figure was 87%.
As to `COc1ccc(Nc2c([N+](=O)[O-])cc([N+](=O)[O-])cc2C(F)(F)F)nc1` [compound 74, N-(5-methoxy-2-pyridyl)-2,4-dinitro-6-trifluoromethylaniline], the pest or weed control at 100 ppm in the assay with Rhizoctonia solani came out at 93%. Also, in the assay on Plutella xylostella, the mortality at 800 ppm is 100%.
Take `O=[N+]([O-])c1cc([N+](=O)[O-])c(Nc2ccc(Cl)nc2Cl)c(C(F)(F)F)c1` [compound 75]: in the assay with Pyricularia orzae, the pest or weed control at 50 ppm turned out to be 100%. In addition, in the assay on Rhizoctonia solani, the pest or weed control at 100 ppm worked out at 100%.
In the case of `O=[N+]([O-])c1cc([N+](=O)[O-])c(Nc2nc(Cl)ccc2C(F)(F)F)c(C(F)(F)F)c1` [compound 76], the pest or weed control at 50 ppm with Pyricularia orzae was 100%. In addition, the pest or weed control at 100 ppm with Rhizoctonia solani is 100%.
On to `Cc1c(Cl)cnc(Nc2c([N+](=O)[O-])cc([N+](=O)[O-])cc2C(F)(F)F)c1Cl` [compound 78], for which the pest or weed control at 50 ppm with Pyricularia orzae stood at 100%. For the same molecule, the pest or weed control at 100 ppm in the assay with Rhizoctonia solani was 100%.
In the case of `O=[N+]([O-])c1cc([N+](=O)[O-])c(Nc2c(Cl)cncc2Cl)c(C(F)(F)F)c1` [compound 79], the pest or weed control at 100 ppm with Rhizoctonia solani was determined as 90%.
Turning to `O=[N+]([O-])c1cc([N+](=O)[O-])c(Nc2ncc(C(F)(F)F)cc2Br)c(C(F)(F)F)c1` [compound 80], the pest or weed control at 50 ppm in the assay with Pyricularia orzae came to 100%. In addition, the pest or weed control at 100 ppm in the assay with Rhizoctonia solani is 100%.
Regarding `O=[N+]([O-])c1cc([N+](=O)[O-])c(Nc2nc(Cl)c(Br)cc2C(F)(F)F)c(C(F)(F)F)c1` [compound 82], the pest or weed control at 50 ppm in the assay on Pyricularia orzae was determined as 100%.
As to `O=[N+]([O-])c1cc([N+](=O)[O-])c(Nc2ncc(Cl)cc2C(F)(F)F)c(C(F)(F)F)c1` [compound 83], the pest or weed control at 50 ppm in the assay with Pyricularia orzae was 100%. Moreover, the mortality at 800 ppm with Plutella xylostella was 100%.
For `O=[N+]([O-])c1cc([N+](=O)[O-])c(Nc2ncc(Br)cc2C(F)(F)F)c(C(F)(F)F)c1` [compound 84], the pest or weed control at 50 ppm in the assay with Pyricularia orzae came out at 100%.
Turning to `COc1c([N+](=O)[O-])cc(C(F)(F)F)c(Nc2ncc(C(F)(F)F)cc2Cl)c1[N+](=O)[O-]` [compound 85, N-(3-chloro-5-trifluoromethyl-2-pyridyl)-2,4-dinitro-3-methoxy-6-trifluoromethylaniline], the pest or weed control at 50 ppm in the assay on Pyricularia orzae stood at 100%. Also, the pest or weed control at 100 ppm in the assay with Rhizoctonia solani is 100%.
For `COc1c([N+](=O)[O-])cc(C(F)(F)F)c(Nc2ncc(Cl)cc2Cl)c1[N+](=O)[O-]` [compound 86], in the assay on Pyricularia orzae, the pest or weed control at 50 ppm was 100%. Further, the pest or weed control at 100 ppm in the assay with Rhizoctonia solani worked out at 100%.
For `Cc1cc(Nc2c([N+](=O)[O-])cc([N+](=O)[O-])cc2C(F)(F)F)ncc1Br` [compound 87], the pest or weed control at 50 ppm in the assay on Pyricularia orzae worked out at 100%. Also, in the assay on Rhizoctonia solani, the pest or weed control at 100 ppm stood at 100%. Further, in the assay on Plutella xylostella, the mortality at 800 ppm is 100%.
As for `O=[N+]([O-])c1cc(C(F)(F)F)cc(C(F)(F)F)c1Nc1ccc(C(F)(F)F)c(Cl)n1` [compound 92], the pest or weed control at 50 ppm in the assay with Pyricularia orzae was 100%.
